Results: patent publication EP4389749A1, “SUBSTITUTED 3,7-DIHYDRO-1H-PURINE-2,6-DIONES AND USE THEREOF” (invIOs GmbH, priority 2022, dated 2024)
Where two headings read alike, the source gives them in different places.

What was measured:
[1] = system: CD4+ T-cells; assay: Immunostimulation assay with anti-CD3/28 stimulated T-cells, CD69 expression by flow cytometry; type: cell-based, human
Description: (§1) Selection of potent compounds based on structure activity relation (SAR) using human, anti-CD3/28 stimulated T-cells. Enhanced activation of stimulated T-cells is measured by CD69 expression by flowcytometry.
(§2) White blood cell enriched buffy coats were ordered from the Austrian red cross, diluted with PBS to a total volume of 480 ml, 30 ml transferred to 50ml falcons and 11 ml lymphoprep added. Cell suspensions were centrifuged for 20 min at 2200 rpm and the PBMC containing layer transferred, three times washed with PBS and counted.
(§3) 10^7 PBMCs were magnetically labeled with CD4 and CD8 microbeads according to manufacturer's instructions and separated using autoMACS device. For dose response experiments with purified CD4+CD8+ T-cells 80000 cells were seeded per 96-well flat bottom cell culture dish.
(§4) 10 mM compounds of the invention stocks were further diluted using DMSO and equal amounts transferred to T-cell containing 96-wells. Final concentrations tested were: 30 µM, 10 µM, 3 µM, 1 µM, 0.3 µM, 0.1 µM, 0.03 µM, 0.01 µM, 0.003 µM and 0.001 µM.
(§5) For the stimulation assays 80.000 purified CD4+ and CD8+ T-cells were seeded per 96-well and incubated with 1 µg/ml anti-CD3, 1 µg/ml anti-CD28 and compounds of the invention ranging from 0.001 µM to 30 µM. DMSO only wells served as control to determine minimal T-cell activation upon stimulation and CD3/28 coupled Dynabeads were used to determine the maximal activation of T-cells. Cells were cultured for 16 hours in a humidified incubator at 37 °C and 5 % CO2.
(§6) T-cells were stained for surface antigens (anti-CD4 and anti-CD8) and cell activation markers (anti-CD25 and anti-CD69). Additionally, a fixable viability dye was used to stain viable cells. Staining was performed for 15 minutes and cells analyzed using a Fortessa flow cytometer and FlowJo Software. EC50s were calculated using GraphPad Prism® and a variable slope model (agonist vs. response - variable slope).

[2] = system: CD8+ T-cells; assay: as above; type: cell-based, human
Description: as §1, §2, §3, §4, §5, §6

[3] = T-cell, purified human CD4+ and CD8+ T-cells, 1 µg/ml anti-CD3, 1 µg/ml anti-CD28, 16 hours, surface FACS, read-out: EC50 CD4+
[4] = T-cell, purified human CD4+ and CD8+ T-cells, 1 µg/ml anti-CD3, 1 µg/ml anti-CD28, 16 hours, surface FACS, read-out: EC50 CD8+

Row | SMILES | EC50 [1, 3] | EC50 [2, 4] | EC50 ([1]; 16 h) | EC50 ([2]; 16 h)
1 | Cn1c(-c2ccc(OCc3ccc(C(F)F)cc3)c(F)c2)nc2c1c(=O)[nH]c(=O)n2CC(O)C(F)(F)F (stereo not shown) [Compound 18] | – | – | > 5 µM | 1 to 5 µM
2 | COc1cc(-c2nc3c(c(=O)[nH]c(=O)n3CC(O)C(F)F)n2C)ccc1OCc1ccc(C)cc1 (stereo not shown) [Compound 19, 3-(3,3-difluoro-2-hydroxypropyl)-8-(3-methoxy-4-((4-methylbenzyl)oxy)phenyl)-7-methyl-3,7-dihydro-1H-purine-2,6-dione] | 0.5 to 1 µM | < 0.1 µM | – | –
3 | COc1cc(-c2nc3c(c(=O)[nH]c(=O)n3CC(C)(C)O)n2C)ccc1OCc1ccccc1 [Compound 52, 8-(4-(benzyloxy)-3-methoxyphenyl)-3-(2-hydroxy-2-methylpropyl)-7-methyl-3,7-dihydro-1H-purine-2,6-dione] | 1 to 5 µM | > 5 µM | – | –
4 | COCC(O)Cn1c(=O)[nH]c(=O)c2c1nc(-c1ccc(OCc3ccccc3)c(OC)c1)n2C (stereo not shown) [Compound 54, 8-(4-(benzyloxy)-3-methoxyphenyl)-3-(2-hydroxy-3-methoxypropyl)-7-methyl-3,7-dihydro-1H-purine-2,6-dione] | 1 to 5 µM | 1 to 5 µM | – | –
5 | COc1cc(-c2nc3c(c(=O)[nH]c(=O)n3CC(O)CO)n2C)ccc1OCc1ccccc1 (stereo not shown) [Compound 55, 8-(4-(benzyloxy)-3-methoxyphenyl)-3-(2,3-dihydroxypropyl)-7-methyl-3,7-dihydro-1H-purine-2,6-dione] | 1 to 5 µM | 1 to 5 µM | – | –
6 | COc1cc(-c2nc3c(c(=O)[nH]c(=O)n3CC(O)C(F)(F)F)n2C)ccc1OCc1ccccc1 (stereo not shown) [Compound 57, 8-(4-(benzyloxy)-3-methoxyphenyl)-7-methyl-3-(3,3,3-trifluoro-2-hydroxypropyl)-3,7-dihydro-1H-purine-2,6-dione] | 0.5 to 1 µM | 1 to 5 µM | – | –
7 | COc1cc(-c2nc3c(c(=O)[nH]c(=O)n3CC(O)CF)n2C)ccc1OCc1ccccc1 (stereo not shown) [Compound 58, 8-(4-(benzyloxy)-3-methoxyphenyl)-3-(3-fluoro-2-hydroxypropyl)-7-methyl-3,7-dihydro-1H-purine-2,6-dione] | 0.5 to 1 µM | 0.1 to 0.5 µM | – | –
8 | CCC(O)Cn1c(=O)[nH]c(=O)c2c1nc(-c1ccc(OCc3ccccc3)c(OC)c1)n2C (stereo not shown) [Compound 59, 8-(4-(benzyloxy)-3-methoxyphenyl)-3-(2-hydroxybutyl)-7-methyl-3,7-dihydro-1H-purine-2,6-dione] | 1 to 5 µM | 1 to 5 µM | – | –
9 | COc1cc(-c2nc3c(c(=O)[nH]c(=O)n3C[C@@H](C)O)n2C)ccc1OCc1ccccc1 [Compound 60, (R)-8-(4-(benzyloxy)-3-methoxyphenyl)-3-(2-hydroxypropyl)-7-methyl-3,7-dihydro-1H-purine-2,6-dione] | 1 to 5 µM | 1 to 5 µM | – | –
10 | COc1cc(-c2nc3c(c(=O)[nH]c(=O)n3C[C@H](C)O)n2C)ccc1OCc1ccccc1 [Compound 61, (S)-8-(4-(benzyloxy)-3-methoxyphenyl)-3-(2-hydroxypropyl)-7-methyl-3,7-dihydro-1H-purine-2,6-dione] | 0.5 to 1 µM | 0.5 to 1 µM | – | –
11 | Cn1c(-c2ccc(OCc3ccc(C(F)F)cc3)c(F)c2)nc2c1c(=O)[nH]c(=O)n2CC(O)C(F)F (stereo not shown) [Compound 62, 3-(3,3-difluoro-2-hydroxypropyl)-8-(4-((4-(difluoromethyl)benzyl)oxy)-3-fluorophenyl)-7-methyl-3,7-dihydro-1H-purine-2,6-dione] | 0.5 to 1 µM | 0.1 to 0.5 µM | – | –
12 | Cn1c(-c2ccc(OCc3ccc(C(F)F)cc3)c(F)c2)nc2c1c(=O)[nH]c(=O)n2CC(O)C(F)(F)F (stereo not shown) [Compound 64, 8-(4-((4-(difluoromethyl)benzyl)oxy)-3-fluorophenyl)-7-methyl-3-(3,3,3-trifluoro-2-hydroxypropyl)-3,7-dihydro-1H-purine-2,6-dione] | > 5 µM | 1 to 5 µM | – | –
13 | CC(O)Cn1c(=O)[nH]c(=O)c2c1nc(-c1ccc(OCc3ccc(C(F)F)cc3)c(F)c1)n2C (stereo not shown) [Compound 65, 8-(4-((4-(difluoromethyl)benzyl)oxy)-3-fluorophenyl)-3-(2-hydroxypropyl)-7-methyl-3,7-dihydro-1H-purine-2,6-dione] | 0.5 to 1 µM | 0.1 to 0.5 µM | – | –
14 | COc1cc(-c2nc3c(c(=O)[nH]c(=O)n3CC(O)CO)n2C)ccc1OCc1ccc(C(F)F)cc1 (stereo not shown) [Compound 72, 8-(4-((4-(difluoromethyl)benzyl)oxy)-3-methoxyphenyl)-3-(2,3-dihydroxypropyl)-7-methyl-3,7-dihydro-1H-purine-2,6-dione] | 1 to 5 µM | 1 to 5 µM | – | –
15 | COc1cc(-c2nc3c(c(=O)[nH]c(=O)n3CC(O)CF)n2C)ccc1OCc1ccc(C(F)F)cc1 (stereo not shown) [Compound 73, 8-(4-((4-(difluoromethyl)benzyl)oxy)-3-methoxyphenyl)-3-(3-fluoro-2-hydroxypropyl)-7-methyl-3,7-dihydro-1H-purine-2,6-dione] | 0.5 to 1 µM | 0.5 to 1 µM | – | –
16 | Cc1ccc(COc2ccc(-c3nc4c(c(=O)[nH]c(=O)n4CC(C)O)n3C)cc2)cc1 (stereo not shown) [Compound 77, 3-(2-hydroxypropyl)-7-methyl-8-(4-((4-methylbenzyl)oxy)phenyl)-3,7-dihydro-1H-purine-2,6-dione] | 0.5 to 1 µM | 0.1 to 0.5 µM | – | –

Now from value to compound:

Row | EC50 [1, 3] | EC50 [2, 4] | EC50 ([1]; 16 h) | EC50 ([2]; 16 h) | SMILES
17 | 0.5 to 1 µM | 1 to 5 µM | – | – | COc1cc(-c2nc3c(c(=O)[nH]c(=O)n3CC(C)O)n2C)ccc1OCc1ccccc1 (stereo not shown) [Compound 16, 8-(4-(benzyloxy)-3-methoxyphenyl)-3-(2-hydroxypropyl)-7-methyl-3,7-dihydro-1H-purine-2,6-dione]
18 | < 0.1 µM | < 0.1 µM | – | – | COc1cc(-c2nc3c(c(=O)[nH]c(=O)n3C[C@H](O)C(F)F)n2C)ccc1OCc1ccccc1 [Compound 53, (S)-8-(4-(benzyloxy)-3-methoxyphenyl)-3-(3,3-difluoro-2-hydroxypropyl)-7-methyl-3,7-dihydro-1H-purine-2,6-dione]
19 | 0.1 to 0.5 µM | 0.1 to 0.5 µM | – | – | COc1cc(-c2nc3c(c(=O)[nH]c(=O)n3CC(C)CO)n2C)ccc1OCc1ccccc1 (stereo not shown) [Compound 56, 8-(4-(benzyloxy)-3-methoxyphenyl)-3-(3-hydroxy-2-methylpropyl)-7-methyl-3,7-dihydro-1H-purine-2,6-dione]
20 | 0.1 to 0.5 µM | 0.1 to 0.5 µM | – | – | Cn1c(-c2ccc(OCc3ccc(C(F)F)cc3)c(F)c2)nc2c1c(=O)[nH]c(=O)n2CC(O)CF (stereo not shown) [Compound 63, 8-(4-((4-(difluoromethyl)benzyl)oxy)-3-fluorophenyl)-3-(3-fluoro-2-hydroxypropyl)-7-methyl-3,7-dihydro-1H-purine-2,6-dione]
21 | < 0.1 µM | < 0.1 µM | – | – | COc1cc(-c2nc3c(c(=O)[nH]c(=O)n3CC(CO)C(F)F)n2C)ccc1OCc1ccc(C(F)F)cc1 (stereo not shown) [Compound 66, 3-(3,3-difluoro-2-(hydroxymethyl)propyl)-8-(4-((4-(difluoromethyl)benzyl)oxy)-3-methoxyphenyl)-7-methyl-3,7-dihydro-1H-purine-2,6-dione]
22 | < 0.1 µM | 0.1 to 0.5 µM | – | – | Cc1ccc(COc2ccc(-c3nc4c(c(=O)[nH]c(=O)n4CC(CO)C(F)F)n3C)cc2F)cc1 (stereo not shown) [Compound 67, 3-(3,3-difluoro-2-(hydroxymethyl)propyl)-8-(3-fluoro-4-((4-methylbenzyl)oxy)phenyl)-7-methyl-3,7-dihydro-1H-purine-2,6-dione]
23 | 0.1 to 0.5 µM | 0.1 to 0.5 µM | – | – | COc1cc(-c2nc3c(c(=O)[nH]c(=O)n3CC(O)C(F)F)n2C)ccc1OCc1ccccc1 (stereo not shown) [Compound 68, 8-(4-(benzyloxy)-3-methoxyphenyl)-3-(3,3-difluoro-2-hydroxypropyl)-7-methyl-3,7-dihydro-1H-purine-2,6-dione]
24 | 0.1 to 0.5 µM | 0.1 to 0.5 µM | – | – | COc1cc(-c2nc3c(c(=O)[nH]c(=O)n3CC(C)CO)n2C)ccc1OCc1ccc(C(F)F)cc1 (stereo not shown) [Compound 74, 8-(4-((4-(difluoromethyl)benzyl)oxy)-3-methoxyphenyl)-3-(3-hydroxy-2-methylpropyl)-7-methyl-3,7-dihydro-1H-purine-2,6-dione]
25 | 0.1 to 0.5 µM | 0.1 to 0.5 µM | – | – | COc1cc(-c2nc3c(c(=O)[nH]c(=O)n3CC(O)C(F)(F)F)n2C)ccc1OCc1ccc(C(F)F)cc1 (stereo not shown) [Compound 75, 8-(4-((4-(difluoromethyl)benzyl)oxy)-3-methoxyphenyl)-7-methyl-3-(3,3,3-trifluoro-2-hydroxypropyl)-3,7-dihydro-1H-purine-2,6-dione]
26 | < 0.1 µM | < 0.1 µM | – | – | Cc1ccc(COc2ccc(-c3nc4c(c(=O)[nH]c(=O)n4CC(C)O)n3C)cc2OC(F)F)cc1 (stereo not shown) [Compound 76, 8-(3-(difluoromethoxy)-4-((4-methylbenzyl)oxy)phenyl)-3-(2-hydroxypropyl)-7-methyl-3,7-dihydro-1H-purine-2,6-dione]
